Inhibition and IC50 data for three compounds are collected here from ChEMBL document CHEMBL5584246, “Novel dihydropyrimidines as promising EGFR & HER2 inhibitors: Insights from experimental and computational studies” (Eur J Med Chem, 2024).

Tested on in one series: not listed separately
The series is described as follows: Inhibition of HER2 expression in human MCF7 cells assessed as positive expression region (M2) at 100 nM incubated for 24 hrs by flow cytometry analysis (reference value: 99.09%). Type of series: functional.
Conditions: not given
In general, inhibition refers to the percentage by which the read-out fell short of the control. As for `CS(=O)(=O)CCNCc1ccc(-c2ccc3ncnc(Nc4ccc(OCc5cccc(F)c5)c(Cl)c4)c3c2)o1` [LAPATINIB], the inhibition at 0.1 µM came to 7.15%.

Tested on in a further series: not listed separately
Put plainly: Inhibition of HER2 expression in human MCF7 cells assessed as negative expression region (M1) at 100 nM incubated for 24 hrs by flow cytometry analysis (reference value: 0.98%). The format is functional.
Conditions: not given
In general terms: A flow cytometer gives signals particle by particle.
For the compound `CS(=O)(=O)CCNCc1ccc(-c2ccc3ncnc(Nc4ccc(OCc5cccc(F)c5)c(Cl)c4)c3c2)o1` [LAPATINIB], the inhibition at 0.1 µM was 93%.

Tested on in the next series: not listed separately
The series is described as follows: Cytotoxicity against African green monkey Vero cells assessed as inhibition of cell growth measured after 3 days by MTT assay. Type of series: toxicity, cell-based. The settings on record: African green monkey (Chlorocebus sabaeus). A general note: Tetrazolium assays rely on reduction of a dye to a coloured formazan, in cell work by metabolically active cells.
In general, IC50 refers to the midpoint of a concentration-inhibition curve. Turning to `COc1ccc(NC(=O)C2=C(C)NC(=S)NC2c2ccccc2)c(OC)c1` (stereo not given), the 50% inhibitory concentration (IC50) at 3 days turned out to be 53.4 µM.
As for `COc1ccc(NC(=O)C2=C(C)NC(=O)NC2c2ccc(Cl)cc2Cl)c(OC)c1` (stereo not given), the half-inhibitory concentration (IC50) at 3 days came to 63.5 µM.
Consider `CS(=O)(=O)CCNCc1ccc(-c2ccc3ncnc(Nc4ccc(OCc5cccc(F)c5)c(Cl)c4)c3c2)o1` [LAPATINIB], for which the IC50 at 3 days was determined as 19.3 µM.

In a further series the test system is MCF7. Put plainly: Cytotoxicity against human MCF7 cells assessed as inhibition of cell growth measured after 3 days by MTT assay. Type of series: functional, cell-based. To be noted: MCF7, 72 h.
Regarding `COc1ccc(NC(=O)C2=C(C)NC(=S)NC2c2ccccc2)c(OC)c1` (stereo not given), the IC50 was found to be 45.3 µM.
As to `COc1ccc(NC(=O)C2=C(C)NC(=O)NC2c2ccc(Cl)cc2Cl)c(OC)c1` (stereo not given), the IC50 is 32.4 µM.
For the compound `CS(=O)(=O)CCNCc1ccc(-c2ccc3ncnc(Nc4ccc(OCc5cccc(F)c5)c(Cl)c4)c3c2)o1` [LAPATINIB], the IC50 was 3.38 µM.

Tested on in a further series: not listed separately
Put plainly: Inhibition of EGFR expression in human MCF7 cells assessed as positive expression region (M2) at 100 nM incubated for 24 hrs by flow cytometry analysis (reference value: 99.36%). The format is functional.
Conditions: not given
Turning to `CS(=O)(=O)CCNCc1ccc(-c2ccc3ncnc(Nc4ccc(OCc5cccc(F)c5)c(Cl)c4)c3c2)o1` [LAPATINIB], the inhibition at 0.1 µM came out at 5.88%.

Tested on in a further series: not listed separately
The series is described as follows: Inhibition of EGFR expression in human MCF7 cells assessed as negative expression region (M1) at 100 nM incubated for 24 hrs by flow cytometry analysis (reference value: 0.66%).
Conditions: not given
Type of series: functional.
In the case of `CS(=O)(=O)CCNCc1ccc(-c2ccc3ncnc(Nc4ccc(OCc5cccc(F)c5)c(Cl)c4)c3c2)o1` [LAPATINIB], the inhibition at 0.1 µM came to 94.3%.
